Data from PubChem BioAssay AID270 (DTP/NCI, 2004).
Inconclusive results are not listed.

Tested on: BDF1 mice, s.c. Lewis lung carcinoma, T/C %
Experiment: NCI In Vivo Anticancer Drug Screen. Data for tumor model Lewis Lung Carcinoma (subcutaneous) in B6D2F1 (BDF1) mice
In short: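 Antitumor effect in vivo is scored from survival or tumor burden, reported as treated relative to vehicle controls.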

## O=c1n(CCCl)c(=O)n(CCCl)c(=O)n1CCCl
endpoint: mean tumor weight, dose: 25.0 mg/kg/injection, schedule: Q01DX011 (ip), vehicle: other, higher = larger tumour
  T/C: 121 % of control
endpoint: mean tumor weight, dose: 50.0 mg/kg/injection, schedule: Q01DX011 (ip), vehicle: other, higher = larger tumour
  T/C: 116 % of control
endpoint: mean tumor weight, dose: 100.0 mg/kg/injection, schedule: Q01DX011 (ip), vehicle: other, higher = larger tumour
  T/C: 65 % of control
endpoint: mean tumor weight, dose: 200.0 mg/kg/injection, schedule: Q01DX011 (ip), vehicle: other, higher = larger tumour
  T/C: 113 % of control
endpoint: mean tumor weight, dose: 400.0 mg/kg/injection, schedule: Q01DX011 (ip), vehicle: other, higher = larger tumour
  T/C: 108 % of control

## CCNCc1cc(Nc2cc(C)nc(/N=C(\N)Nc3ccc(Cl)c(Cl)c3)n2)ccc1OC
endpoint: median survival time, dose: 0.8 mg/kg/injection, schedule: Q01DX009 (ip), vehicle: Klucel (hydroxypropylcellulose) (HPC), higher = longer survival
  T/C: 96 % of control
endpoint: median survival time, dose: 1.56 mg/kg/injection, schedule: Q01DX009 (ip), vehicle: Klucel (hydroxypropylcellulose) (HPC), higher = longer survival
  T/C: 100 % of control
endpoint: median survival time, dose: 3.12 mg/kg/injection, schedule: Q01DX009 (ip), vehicle: Klucel (hydroxypropylcellulose) (HPC), higher = longer survival
  T/C: 96 % of control

## O=S1(=O)CCCO1
endpoint: mean tumor weight, dose: 10.0 mg/kg/injection, schedule: Q01DX011 (ip), vehicle: saline, higher = larger tumour
  T/C: 109 % of control
endpoint: mean tumor weight, dose: 20.0 mg/kg/injection, schedule: Q01DX011 (ip), vehicle: saline, higher = larger tumour
  T/C: 102 % of control
endpoint: mean tumor weight, dose: 40.0 mg/kg/injection, schedule: Q01DX011 (ip), vehicle: saline, higher = larger tumour
  T/C: 78 % of control

## CCC(c1ccc(O)cc1)C(CC)c1ccc(OC)cc1 (centres undefined)
endpoint: mean tumor weight, dose: 4.0 mg/kg/injection, schedule: Q01DX011 (sc), vehicle: steriod suspending solution, higher = larger tumour
  T/C: 60 % of control
endpoint: mean tumor weight, dose: 8.0 mg/kg/injection, schedule: Q01DX011 (sc), vehicle: steriod suspending solution, higher = larger tumour
  T/C: 36 % of control
endpoint: mean tumor weight, dose: 16.0 mg/kg/injection, schedule: Q01DX011 (sc), vehicle: steriod suspending solution, higher = larger tumour
  T/C: 33 % of control
endpoint: mean tumor weight, dose: 31.3 mg/kg/injection, schedule: Q01DX011 (ip), vehicle: saline, higher = larger tumour
  T/C: 23 % of control
endpoint: mean tumor weight, dose: 32.0 mg/kg/injection, schedule: Q01DX011 (sc), vehicle: steriod suspending solution, higher = larger tumour
  T/C: 16 % of control
endpoint: mean tumor weight, dose: 62.5 mg/kg/injection, schedule: Q01DX011 (ip), vehicle: saline, higher = larger tumour
  T/C: 21 % of control
endpoint: mean tumor weight, dose: 125.0 mg/kg/injection, schedule: Q01DX011 (ip), vehicle: saline, higher = larger tumour
  T/C: 16 % of control
endpoint: mean tumor weight, dose: 250.0 mg/kg/injection, schedule: Q01DX011 (ip), vehicle: saline, higher = larger tumour
  T/C: 13 % of control

## CC1OC(Oc2c(-c3cc(O)c(O)c(O)c3)oc3cc(O)cc(O)c3c2=O)C(O)C(O)C1O (centres undefined)
endpoint: mean tumor weight, dose: 100.0 mg/kg/injection, schedule: Q01DX011 (ip), vehicle: carboxymethylcellulose (CMC), higher = larger tumour
  T/C: 59 % of control
endpoint: mean tumor weight, dose: 200.0 mg/kg/injection, schedule: Q01DX011 (ip), vehicle: carboxymethylcellulose (CMC), higher = larger tumour
  T/C: 49 % of control
endpoint: mean tumor weight, dose: 400.0 mg/kg/injection, schedule: Q01DX011 (ip), vehicle: carboxymethylcellulose (CMC), higher = larger tumour
  T/C: 50 % of control

## C=C(C(=O)O)C(=O)O
endpoint: median survival time, dose: 50.0 mg/kg/injection, schedule: Q01DX009 (ip), vehicle: saline, higher = longer survival
  T/C: 105 % of control
endpoint: median survival time, dose: 100.0 mg/kg/injection, schedule: Q01DX009 (ip), vehicle: saline, higher = longer survival
  T/C: 105 % of control
endpoint: median survival time, dose: 200.0 mg/kg/injection, schedule: Q01DX009 (ip), vehicle: saline, higher = longer survival
  T/C: 103 % of control

## O=[N+]([O-])c1ccc2c(N=Nc3ccc4ccccc4c3O)c(O)cc(S(=O)(=O)O)c2c1
endpoint: median survival time, dose: 37.5 mg/kg/injection, schedule: Q01DX009 (ip), vehicle: saline, higher = longer survival
  T/C: 101 % of control
endpoint: median survival time, dose: 75.0 mg/kg/injection, schedule: Q01DX009 (ip), vehicle: saline, higher = longer survival
  T/C: 109 % of control
endpoint: median survival time, dose: 150.0 mg/kg/injection, schedule: Q01DX009 (ip), vehicle: saline, higher = longer survival
  T/C: 94 % of control

## CC1=C(/C=C/C(C)=C/C=C/C(C)=C/C(=O)O)C(C)(C)CCC1
endpoint: median survival time, dose: 6.25 mg/kg/injection, schedule: Q01DX005 (ip), vehicle: saline with Tween-80, higher = longer survival
  T/C: 109 % of control
endpoint: median survival time, dose: 8.0 mg/kg/injection, schedule: Q01DX009 (ip), vehicle: saline with Tween-80, higher = longer survival
  T/C: 102 % of control
endpoint: median survival time, dose: 16.0 mg/kg/injection, schedule: Q01DX009 (ip), vehicle: saline with Tween-80, higher = longer survival
  T/C: 93 % of control
endpoint: median survival time, dose: 32.0 mg/kg/injection, schedule: Q01DX009 (ip), vehicle: saline with Tween-80, higher = longer survival
  T/C: 93 % of control

## CCC[CH2][Sn]1([CH2]CCC)[O]C(=O)C[S]1
endpoint: mean tumor weight, dose: 4.0 mg/kg/injection, schedule: Q01DX011 (ip), vehicle: saline, higher = larger tumour
  T/C: 88 % of control
endpoint: mean tumor weight, dose: 8.0 mg/kg/injection, schedule: Q01DX011 (ip), vehicle: saline, higher = larger tumour
  T/C: 50 % of control
endpoint: mean tumor weight, dose: 16.0 mg/kg/injection, schedule: Q01DX011 (ip), vehicle: saline, higher = larger tumour
  T/C: 100 % of control

## CC1(C)[C@@H]2CC[C@]1(C)[C@H](O)C2
endpoint: mean tumor weight, dose: 50.0 mg/kg/injection, schedule: Q01DX011 (ip), vehicle: saline, higher = larger tumour
  T/C: 100 % of control
endpoint: mean tumor weight, dose: 100.0 mg/kg/injection, schedule: Q01DX011 (ip), vehicle: saline, higher = larger tumour
  T/C: 95 % of control
endpoint: mean tumor weight, dose: 200.0 mg/kg/injection, schedule: Q01DX011 (ip), vehicle: saline, higher = larger tumour
  T/C: 79 % of control
endpoint: mean tumor weight, dose: 400.0 mg/kg/injection, schedule: Q01DX011 (ip), vehicle: saline, higher = larger tumour
  T/C: 100 % of control
